Counter-ions that a name gives are not always drawn.
biological target: T1, human β-Secretase (Homo sapiens, UniProt P56817); test: TR-FRET assay (β-secretase enzyme, sBACE-Fc); type: biochemical; conditions: soluble human β-secretase (sBACE-Fc), substrate (Europium)[…](Qsy7) 100 nM, pH4.5; read-out: IC50 in TR-FRET assay
T1 construct: soluble part of the human β-Secretase (AA 1-AA 460); Fc domain of IgG1; made in house
Experimental: The β-secretase enzyme used in the TR-FRET is prepared as follows:
The cDNA for the soluble part of the human β-Secretase (AA 1-AA 460) was cloned using the ASP2-Fc10-1-IRES-GFP-neoK mammalian expression vector. The gene was fused to the Fc domain of IgG1 (affinity tag) and stably cloned into HEK 293 cells.
The robotic systems Biomek FX and Velocity 11 were used for all liquid handling and the enzyme and substrate solutions were kept on ice until they were placed in the robotic system. Enzyme (9 μl) was added to the plate then 1 μl of compound in dimethylsulphoxide was added, mixed and pre-incubated for 10 minutes. Substrate (10 μl) was then added, mixed and the reaction proceeded for 15 minutes at room temperature. The reaction was stopped with the addition of Stop solution (7 μl, NaAcetate, pH 9). […] The dimethylsulphoxide control, instead of test compound, defined the 100% activity level and 0% activity was defined by wells lacking enzyme (replaced with reaction buffer).

T1 sequence (P56817 22-460): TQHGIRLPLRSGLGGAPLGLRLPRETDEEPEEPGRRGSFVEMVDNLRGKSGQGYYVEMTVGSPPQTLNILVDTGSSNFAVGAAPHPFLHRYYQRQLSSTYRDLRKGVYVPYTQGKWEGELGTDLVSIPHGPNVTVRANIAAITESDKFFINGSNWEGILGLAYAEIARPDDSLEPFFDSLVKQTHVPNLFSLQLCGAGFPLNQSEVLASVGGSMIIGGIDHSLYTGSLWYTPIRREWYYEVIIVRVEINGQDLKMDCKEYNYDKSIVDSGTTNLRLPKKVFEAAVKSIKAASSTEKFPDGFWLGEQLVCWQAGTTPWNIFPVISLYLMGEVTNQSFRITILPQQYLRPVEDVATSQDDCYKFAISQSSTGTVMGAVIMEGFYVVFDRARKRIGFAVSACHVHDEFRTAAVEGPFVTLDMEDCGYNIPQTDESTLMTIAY

IC50 [nM]	SMILES
1600	Cc1cc(C2(c3cc(-c4cncnc4)ccc3F)N=C(N)c3c(F)cccc32)ccn1 (stereo not shown) [Example 1, 4-Fluoro-1-(2-fluoro-5-(pyrimidin-5-yl)phenyl)-1-(2-methylpyridin-4-yl)-1H-isoindol-3-amine]
1800	Cc1cc(C2(c3cc(-c4cncc(C#N)c4)ccc3F)N=C(N)c3c(F)cccc32)ccn1 (stereo not shown) [Example 3, 5-(3-(3-Amino-4-fluoro-1-(2-methylpyridin-4-yl)-1H-isoindol-1-yl)-4-fluorophenyl)nicotinonitrile]
1600	Cc1cc(C2(c3cc(-c4cncc(F)c4)ccc3F)N=C(N)c3c(F)cccc32)ccn1 (stereo not shown) [Example 4, 4-Fluoro-1-(2-fluoro-5-(5-fluoropyridin-3-yl)phenyl)-1-(2-methylpyridin-4-yl)-1H-isoindol-3-amine]
1700	Cc1cc(C2(c3cc(-c4cccnc4)ccc3F)N=C(N)c3c(F)cccc32)ccn1 (stereo not shown) [Example 5, 4-Fluoro-1-(2-fluoro-5-(pyridin-3-yl)phenyl)-1-(2-methylpyridin-4-yl)-1H-isoindol-3-amine]
1100	NC1=NC(c2ccnc(C(F)(F)F)c2)(c2cc(-c3cncnc3)ccc2F)c2cccc(F)c21 (stereo not shown) [Example 6, 4-Fluoro-1-(2-fluoro-5-(pyrimidin-5-yl)phenyl)-1-(2-(trifluoromethyl)pyridin-4-yl)-1H-isoindol-3-amine]
2000	N#Cc1cncc(-c2ccc(F)c(C3(c4ccnc(C(F)(F)F)c4)N=C(N)c4c(F)cccc43)c2)c1 (stereo not shown) [Example 7, 5-(3-(3-Amino-4-fluoro-1-(2-(trifluoromethyl)pyridin-4-yl)-1H-isoindol-1-yl)-4-fluorophenyl)nicotinonitrile]
12000	CS(=O)(=O)c1cncc(-c2ccc(F)c(C3(c4ccnc(C(F)(F)F)c4)N=C(N)c4c(F)cccc43)c2)c1 (stereo not shown) [Example 8, 4-Fluoro-1-(2-fluoro-5-(5-(methylsulfonyl)pyridin-3-yl)phenyl)-1-(2-(trifluoromethyl)pyridin-4-yl)-1H-isoindol-3-amine]
75	NC1=NC(c2ccncc2)(c2cccc(-c3cccc(Cl)c3)c2)c2cccc(F)c21 (stereo not shown) [Example 9, 1-(3′-Chlorobiphenyl-3-yl)-4-fluoro-1-(pyridin-4-yl)-1H-isoindol-3-amine]
160	NC1=NC(c2ccncc2)(c2cccc(-c3cncnc3)c2)c2cccc(F)c21 (stereo not shown) [Example 10, 4-Fluoro-1-(pyridin-4-yl)-1-(3-(pyrimidin-5-yl)phenyl)-1H-isoindol-3-amine]
95	COc1cccc(-c2cccc(C3(c4ccncc4)N=C(N)c4c(F)cccc43)c2)c1F (stereo not shown) [Example 14, 4-Fluoro-1-(2′-fluoro-3′-methoxybiphenyl-3-yl)-1-(pyridin-4-yl)-1H-isoindol-3-amine]
140	NC1=NC(c2ccncc2)(c2cccc(-c3cncc(F)c3)c2)c2cccc(F)c21 (stereo not shown) [Example 15, 4-Fluoro-1-(3-(5-fluoropyridin-3-yl)phenyl)-1-(pyridin-4-yl)-1H-isoindol-3-amine]
320	NC1=NC(c2ccncc2)(c2ccc(F)c(-c3cncnc3)c2)c2cccc(F)c21 (stereo not shown) [Example 16, 4-Fluoro-1-(4-fluoro-3-(pyrimidin-5-yl)phenyl)-1-(pyridin-4-yl)-1H-isoindol-3-amine]
110	COc1ccc(C2(c3cccc(-c4cncnc4)c3)N=C(N)c3c(F)cccc32)cc1 (stereo not shown) [Example 17, 4-Fluoro-1-(4-methoxyphenyl)-1-(3-(pyrimidin-5-yl)phenyl)-1H-isoindol-3-amine]
3400	COc1cccc(-c2cc(C3(c4cncnc4)N=C(N)c4c(F)cccc43)ccc2F)c1F (stereo not shown) [Example 18, 1-(2′,6-Difluoro-3′-methoxybiphenyl-3-yl)-4-fluoro-1-(pyrimidin-5-yl)-1H-isoindol-3-amine]
4100	COc1ccnc(-c2cc(C3(c4cncnc4)N=C(N)c4c(F)cccc43)ccc2F)c1 (stereo not shown) [Example 19, 4-Fluoro-1-(4-fluoro-3-(4-methoxypyridin-2-yl)phenyl)-1-(pyrimidin-5-yl)-1H-isoindol-3-amine]
240	NC1=NC(c2cccc(-c3cncnc3)c2)(c2ccnc(C(F)(F)F)c2)c2cccc(F)c21 (stereo not shown) [Example 20, 4-Fluoro-1-(3-(pyrimidin-5-yl)phenyl)-1-(2-(trifluoromethyl)pyridin-4-yl)-1H-isoindol-3-amine]
1100	Cc1cc(C2(c3cccc(-c4cncnc4)c3)N=C(N)c3c(F)cccc32)cc(C)n1 (stereo not shown) [Example 21, 1-(2,6-Dimethylpyridin-4-yl)-4-fluoro-1-(3-(pyrimidin-5-yl)phenyl)-1H-isoindol-3-amine]

IC50 [nM]	SMILES
870	Cc1cc(C2(c3cccc(-c4cncc(C#N)c4)c3)N=C(N)c3c(F)cccc32)cc(C)n1 (stereo not shown) [Example 22, 5-(3-(3-Amino-1-(2,6-dimethylpyridin-4-yl)-4-fluoro-1H-isoindol-1 yl)phenyl)nicotinonitrile]
250	N#Cc1cncc(-c2cccc(C3(c4ccnc(C(F)(F)F)c4)N=C(N)c4c(F)cccc43)c2)c1 (stereo not shown) [Example 23, 5-(3-(3-Amino-4-fluoro-1-(2-(trifluoromethyl)pyridin-4-yl)-1H-isoindol-1-yl)phenyl)nicotinonitrile]
280	COc1cc(C2(c3ccc(F)c(-c4cncnc4)c3)N=C(N)c3c(F)cccc32)ccn1 (stereo not shown) [Example 24, 4-Fluoro-1-(4-fluoro-3-(pyrimidin-5-yl)phenyl)-1-(2-methoxypyridin-4-yl)-1H-isoindol-3-amine]
370	N#Cc1cncc(-c2cc(C3(c4ccnc(C(F)(F)F)c4)N=C(N)c4c(F)cccc43)ccc2F)c1 (stereo not shown) [Example 25, 5-(5-(3-Amino-4-fluoro-1-(2-(trifluoromethyl)pyridin-4-yl)-1H-isoindol-1-yl)-2-fluorophenyl) nicotinonitrile trifluoroacetate]
460	N#Cc1cncc(-c2cc(C3(c4ccncc4)N=C(N)c4c(F)cccc43)ccc2F)c1 (stereo not shown) [Example 26, 5-(5-(3-Amino-4-fluoro-1-(pyridin-4-yl)-1H-isoindol-1-yl)-2-fluorophenyl) nicotinonitrile]
400	COc1cc(C2(c3cccc(-c4cncnc4)c3)N=C(N)c3c(F)cccc32)ccn1 (stereo not shown) [Example 27, 4-Fluoro-1-(2-methoxypyridin-4-yl)-1-(3-(pyrimidin-5-yl)phenyl)-1H-isoindol-3-amine]
470	COc1cc(C2(c3cccc(-c4cncc(C#N)c4)c3)N=C(N)c3c(F)cccc32)ccn1 (stereo not shown) [Example 28, 5-(3-(3-Amino-4-fluoro-1-(2-methoxypyridin-4-yl)-1H-isoindol-1-yl)phenyl)nicotinonitrile acetate]
200	COc1cc(C2(c3cccc(-c4cnccn4)c3)N=C(N)c3c(F)cccc32)ccn1 (stereo not shown) [Example 29, 4-Fluoro-1-(2-methoxypyridin-4-yl)-1-(3-(pyrazin-2-yl)phenyl)-1H-isoindol-3-amine acetate]
320	NC1=NC(c2cccc(-c3cnccn3)c2)(c2ccnc(C(F)(F)F)c2)c2cccc(F)c21 (stereo not shown) [Example 30, 4-Fluoro-1-(3-(pyrazin-2-yl)phenyl)-1-(2-(trifluoromethyl)pyridin-4-yl)-1H-isoindol-3-amine]
90	Cc1cc(C2(c3cccc(-c4cncnc4)c3)N=C(N)c3c(F)cccc32)cc(C(F)F)n1 (stereo not shown) [Example 32, 1-(2-(Difluoromethyl)-6-methylpyridin-4-yl)-4-fluoro-1-(3-(pyrimidin-5-yl)phenyl)-1H-isoindol-3-amine]
730	Cc1cc(C2(c3ccnc(-c4cncnc4)c3)N=C(N)c3c(F)cccc32)cc(C(F)F)n1 (stereo not shown) [Example 33, 1-(2-(Difluoromethyl)-6-methylpyridin-4-yl)-4-fluoro-1-(2-(pyrimidin-5-yl)pyridin-4-yl)-1H-isoindol-3-amine]
81	COc1c(C)cc(C2(c3ccnc(-c4cncnc4)c3)N=C(N)c3c(F)cccc32)cc1F (stereo not shown) [Example 34, 4-Fluoro-1-(3-fluoro-4-methoxy-5-methylphenyl)-1-(2-(pyrimidin-5-yl)pyridin-4-yl)-1H-isoindol-3-amine]
35	COc1c(C)cc(C2(c3ccnc(-c4cncnc4)c3)N=C(N)c3c(F)cccc32)cc1C (stereo not shown) [Example 35, 4-Fluoro-1-(4-methoxy-3,5-dimethylphenyl)-1-(2-(pyrimidin-5-yl)pyridin-4-yl)-1H-isoindol-3-amine]
490	COc1c(C)cc(C2(c3ccnc(-c4cncnc4)c3)N=C(N)c3c(F)cccc32)nc1C (stereo not shown) [Example 36, 4-Fluoro-1-(5-methoxy-4,6-dimethylpyridin-2-yl)-1-(2-(pyrimidin-5-yl)pyridin-4-yl)-1H-isoindol-3-amine]
87	NC1=NC(c2cccc(-c3cnccn3)c2)(c2ccnc(C3CC3)c2)c2cccc(F)c21 (stereo not shown) [Example 37, 1-(2-Cyclopropylpyridin-4-yl)-4-fluoro-1-(3-(pyrazin-2-yl)phenyl)-1H-isoindol-3-amine trifluoroacetate]
430	COc1ccnc(-c2cccc(C3(c4ccnc(OC)c4)N=C(N)c4c(F)cccc43)c2)c1 (stereo not shown) [Example 38, 4-Fluoro-1-(3-(4-methoxypyridin-2-yl)phenyl)-1-(2-methoxypyridin-4-yl)-1H-isoindol-3-amine]

same assay, conditions: stated in the text of the example; read-out: IC50 in the FRET assay

IC50 [nM]	SMILES
27000	Cc1cc(C2(c3cc(-c4cncc(S(C)(=O)=O)c4)ccc3F)N=C(N)c3c(F)cccc32)ccn1 (stereo not shown) [Example 2, 4-Fluoro-1-(2-fluoro-5-(5-(methylsulfonyl)pyridin-3-yl)phenyl)-1-(2-methylpyridin-4-yl)-1H-isoindol-3-amine]

— patent publication US8030500B2, “Substituted isoindoles for the treatment and/or prevention of Aβ- related pathologies” (AstraZeneca AB, priority 2008, dated 2011)
